Experimental data reported in patent publication US20100298314A1, “NOVEL JNK INHIBITORS” (Schering Corporation, priority 2006, published 2010).
Values joined by “and” are separate entries in the source; they are usually repeats but may differ in a detail not shown here. Equal entries are not always repeated.

Molecular target: JNK2 (Homo sapiens, UniProt P45984)
Assay: JNK2 kinase DELFIA (phosphorylation of biotinylated GST-ATF2)
Format: biochemical
Conditions: final ATP 4 uM, reported as range for a group
Description: (§1) Before initiation of kinase reactions, compounds were pre-incubated with the enzyme for 10 minutes. Pre-incubation reactions contained 50 mM HEPES pH 7.3, 10 mM MgCl2, 1 mM DTT, 75 mM NaCl, 1 mM EDTA, 1 mM EGTA, 0.01% CHAPS, 2 nM JNK1, 6 ug/mL biotinylated GST-ATF2, 0.1 mg/ml BSA, 5% DMSO and 0-100 μM compound in a total volume of 40 μL. After a 10 minute room temperature pre-incubation, 10 μL of 35 μM ATP was added to start the reaction (final concentration of ATP=7 uM). Reactions were incubated at room temperature for 30 minutes. A small aliquot (10 uL) was taken and quenched by adding into 190 uL of DELFIA Assay buffer containing 100 mM EDTA. The amount of phosphate transferred to biotinylated GST-ATF2 was measured using the Dissociation Enhanced Lanthanide Fluorescence Immuno-assay (DELFIA) from Perkin Elmer according to manufacturers protocol. Briefly, biotinylated GST-ATF2 was captured on streptavidin coated plates for 1 hour, washed twice, then incubated for 1 hour with a 1:1000 dilution of rabbit-anti-phospho-ATF2 antibody and a 1:3500 dilution of Europium-labeled anti-rabbit secondary antibody. Free antibody was removed with six washes, Europium was dissociated from the antibody, and Europium fluorescence was measured using an excitation wavelength of 340 nm and an emission wavelength of 615 nm. JNK2 and JNK3 kinase reactions were carried out similarly, with the exception that the final concentration of ATP was 4 uM and 2 uM, respectively.

JNK2, sequence (P45984 whole entry, species assumed): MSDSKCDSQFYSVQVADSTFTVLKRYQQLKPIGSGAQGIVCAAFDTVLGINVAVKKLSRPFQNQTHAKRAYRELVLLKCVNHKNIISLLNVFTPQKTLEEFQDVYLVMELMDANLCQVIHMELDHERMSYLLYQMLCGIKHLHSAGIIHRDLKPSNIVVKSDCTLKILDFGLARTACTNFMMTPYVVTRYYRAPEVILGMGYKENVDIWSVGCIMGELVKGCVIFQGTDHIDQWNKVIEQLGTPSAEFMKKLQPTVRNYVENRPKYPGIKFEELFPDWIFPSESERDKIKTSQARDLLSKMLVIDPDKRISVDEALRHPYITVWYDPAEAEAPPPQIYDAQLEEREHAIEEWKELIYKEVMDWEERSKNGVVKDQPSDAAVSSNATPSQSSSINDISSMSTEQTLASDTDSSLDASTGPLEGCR

Row | SMILES | IC50
1 | CC[C@@H](CO)NC(=O)c1c(-c2ccsc2)nc2c(C(=O)NCc3ccc4nc(N)sc4c3)cccn12 [Compound 13] | 201 to 666 nM
2 | Nc1nc2ccc(CNC(=O)c3cccn4c(C(=O)NCC5(O)CCCCC5)c(-c5ccsc5)nc34)cc2s1 [Compound 15] | 107 to 173 nM
3 | C[C@H](CO)NC(=O)c1c(-c2ccsc2)nc2c(C(=O)NCc3ccc4nc(N)sc4c3)cccn12 [Compound 23] | 107 to 173 nM
4 | CC(C)CNC(=O)c1c(-c2ccsc2)nc2c(C(=O)NCc3ccc4nc(N)sc4c3)cccn12 [Compound 38] | 201 to 666 nM
5 | C[C@@H](NC(=O)c1c(-c2ccsc2)nc2c(C(=O)NCc3ccc4nc(N)sc4c3)cccn12)c1ccccc1 [Compound 42] | 52 to 94 nM
6 | Cc1cc(C(=O)NCc2ccc3nc(N)sc3c2)c2nc(C)c(C(=O)N[C@H](CO)CC(C)C)n2c1 [Compound 351] | 1070 to 11500 nM

Molecular target: JNK3 (Homo sapiens, UniProt P53779)
Sequence (P53779 whole entry, species assumed): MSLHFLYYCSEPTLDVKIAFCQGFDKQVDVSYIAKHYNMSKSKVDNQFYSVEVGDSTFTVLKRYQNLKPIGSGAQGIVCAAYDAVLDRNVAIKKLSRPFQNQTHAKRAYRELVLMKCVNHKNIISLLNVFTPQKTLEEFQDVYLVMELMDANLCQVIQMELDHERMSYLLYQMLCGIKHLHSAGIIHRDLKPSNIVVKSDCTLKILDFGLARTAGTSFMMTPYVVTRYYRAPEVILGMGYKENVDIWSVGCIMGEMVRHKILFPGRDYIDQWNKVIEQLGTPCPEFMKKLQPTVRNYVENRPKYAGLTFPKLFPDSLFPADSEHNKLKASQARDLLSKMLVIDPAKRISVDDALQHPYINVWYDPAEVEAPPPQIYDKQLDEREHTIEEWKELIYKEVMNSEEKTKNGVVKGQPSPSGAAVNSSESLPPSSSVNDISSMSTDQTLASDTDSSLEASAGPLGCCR
Assay: JNK3 kinase DELFIA (phosphorylation of biotinylated GST-ATF2)
Format: biochemical
Conditions: final ATP 2 uM
Description: as §1

Row | SMILES | IC50
7 | CC[C@@H](CO)NC(=O)c1c(-c2ccsc2)nc2c(C(=O)NCc3ccc4nc(N)sc4c3)cccn12 [Compound 13] | 54 to 98 nM
8 | Nc1nc2ccc(CNC(=O)c3cccn4c(C(=O)NCC5(O)CCCCC5)c(-c5ccsc5)nc34)cc2s1 [Compound 15] | 118 to 174 nM
9 | C[C@H](CO)NC(=O)c1c(-c2ccsc2)nc2c(C(=O)NCc3ccc4nc(N)sc4c3)cccn12 [Compound 23] | 118 to 174 nM
10 | CC(C)CNC(=O)c1c(-c2ccsc2)nc2c(C(=O)NCc3ccc4nc(N)sc4c3)cccn12 [Compound 38] | 54 to 98 nM
11 | C[C@@H](NC(=O)c1c(-c2ccsc2)nc2c(C(=O)NCc3ccc4nc(N)sc4c3)cccn12)c1ccccc1 [Compound 42] | 118 to 174 nM

Molecular target: JNK1 (Homo sapiens, UniProt P45983)
Sequence (P45983 whole entry, species assumed): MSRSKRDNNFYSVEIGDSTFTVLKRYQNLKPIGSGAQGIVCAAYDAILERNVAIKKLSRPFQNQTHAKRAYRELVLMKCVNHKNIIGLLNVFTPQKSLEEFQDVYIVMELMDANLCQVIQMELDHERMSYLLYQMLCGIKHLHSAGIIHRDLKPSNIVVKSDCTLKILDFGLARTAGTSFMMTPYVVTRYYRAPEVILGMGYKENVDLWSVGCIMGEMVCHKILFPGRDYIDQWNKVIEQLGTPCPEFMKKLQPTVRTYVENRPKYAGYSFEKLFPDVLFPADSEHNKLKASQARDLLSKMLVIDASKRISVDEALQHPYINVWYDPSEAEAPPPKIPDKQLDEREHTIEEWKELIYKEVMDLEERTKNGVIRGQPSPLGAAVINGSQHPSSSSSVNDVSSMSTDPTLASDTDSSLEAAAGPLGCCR
Assay: JNK1 kinase DELFIA (phosphorylation of biotinylated GST-ATF2)
Format: biochemical
Conditions: DELFIA, 2 nM JNK1, final ATP 7 uM, 10 min pre-incubation; reported as range for a group
Description: as §1

Row | SMILES | IC50
12 | CC[C@H](C)[C@@H](CO)NC(=O)c1c(-c2ccsc2)nc2c(C(=O)NCc3ccc4nc(N)sc4c3)cccn12 [Compound 46] | 6 to 100 nM
13 | CC(C)[C@@H](CO)NC(=O)c1c(-c2ccsc2)nc2c(C(=O)NCc3ccc4nc(N)sc4c3)cccn12 [Compound 47] | 6 to 100 nM
14 | Nc1nc2ccc(CNC(=O)c3cccn4c(C(=O)N[C@H](CO)C5CCCCC5)c(-c5ccsc5)nc34)cc2s1 [Compound 69] | 6 to 100 nM
15 | CC(C)C[C@@H](CO)NC(=O)c1c(-c2ccsc2)nc2c(C(=O)NCc3ccc4c(c3)OCO4)cccn12 [Compound 94] | 6 to 100 nM
16 | CC(C)c1nc2ccc(CNC(=O)c3cccn4c(C(=O)NCC5(O)CCCCC5)c(-c5ccsc5)nc34)cc2[nH]1 [Compound 117] | 6 to 100 nM
17 | Cc1nc2ccc(CNC(=O)c3cccn4c(C(=O)NCC5(O)CCCCC5)c(-c5ccsc5)nc34)cc2[nH]1 [Compound 118] | 6 to 100 nM
18 | CCc1nc2c(C(=O)NCc3ccc4nc(C)sc4c3)cccn2c1C(=O)N[C@H](CO)CC(C)C [Compound 131] | 6 to 100 nM
19 | Cc1nc2cc(CNC(=O)c3cccn4c(C(=O)N[C@H](CO)CC(C)C)c(-c5ccsc5)nc34)ccc2n1C [Compound 139] | 6 to 100 nM and 6 to 20 nM
20 | CC(C)C[C@@H](CO)NC(=O)c1c(-c2ccsc2)nc2c(C(=O)NCc3cnc4nc(N)sc4c3)cccn12 [Compound 150] | 6 to 100 nM
21 | CNc1nc2ccc(CNC(=O)c3cccn4c(C(=O)N[C@H](CO)CC(C)C)c(-c5ccccn5)nc34)cc2s1 [Compound 156] | 6 to 20 nM
22 | CC(C)C[C@@H](CO)NC(=O)c1c(-c2ccsc2)nc2c(C(=O)NCc3ccc(C(F)(F)F)nc3)cccn12 [Compound 209] | 6 to 100 nM
23 | CC(C)C[C@@H](CO)NC(=O)c1c(-c2ccsc2)nc2c(C(=O)N[C@H](C)c3ccc(O)cc3)cccn12 [Compound 213] | 6 to 100 nM
24 | CC(C)C[C@@H](CO)NC(=O)c1c(-c2ccsc2)nc2c(C(=O)NCc3cnn(-c4cccc(C(F)(F)F)c4)c3)cccn12 [Compound 224] | 6 to 100 nM
25 | O=C(NCc1ccc2c(c1)OCO2)c1cccn2c(C(=O)N[C@H](CO)c3ccccc3)c(-c3ccsc3)nc12 [Compound 238] | 6 to 100 nM
26 | CSCC[C@@H](CO)NC(=O)c1c(-c2ccsc2)nc2c(C(=O)NCc3ccc(S(C)(=O)=O)cc3)cccn12 [Compound 242] | 6 to 100 nM
27 | COc1ccc(-c2cc(CNC(=O)c3cccn4c(C(=O)N[C@H](CO)CC(C)C)c(-c5ccsc5)nc34)no2)cc1 [Compound 274] | 6 to 100 nM
28 | CC(C)C[C@@H](CO)NC(=O)c1c(-c2ccsc2)nc2c(C(=O)NCc3ccc4[nH]ncc4c3)cccn12 [Compound 277] | 6 to 100 nM and 6 to 20 nM
29 | Nc1nc2ccc(CNC(=O)c3cccn4c(C(=O)N[C@@H]5c6ccccc6C[C@@H]5O)c(-c5ccsc5)nc34)cc2s1 [Compound 279] | 6 to 100 nM
30 | CCCC[C@@H](CO)NC(=O)c1c(-c2ccsc2)nc2c(C(=O)NCc3ccc4nc(N)sc4c3)cccn12 [Compound 280] | 6 to 100 nM
31 | Nc1nc2ccc(CNC(=O)c3cccn4c(C(=O)NC5CCCC5CO)c(-c5ccsc5)nc34)cc2s1 (stereo not drawn) [Compound 283] | 6 to 100 nM
32 | Nc1nc2ccc(CNC(=O)c3cccn4c(C(=O)N[C@@H](CO)CC5CC5)c(-c5ccsc5)nc34)cc2s1 [Compound 285] | 6 to 100 nM
33 | CC(C)C[C@@H](CO)NC(=O)c1c(-c2ccsc2)nc2c(C(=O)NCc3ccc(NC4CCCC4)nc3)cccn12 [Compound 292] | 6 to 100 nM
34 | CC(C)C[C@@H](CO)NC(=O)c1c(-c2ccsc2)nc2c(C(=O)NCc3ccc(N4CCCCCC4)nc3)cccn12 [Compound 298] | 6 to 100 nM
35 | CC(C)C[C@@H](CO)NC(=O)c1c(-c2ccsc2)nc2c(C(=O)NCc3ccc(-c4ccccc4)nc3)cccn12 [Compound 305] | 6 to 100 nM
36 | CC(C)C[C@@H](CO)NC(=O)c1c(-c2ccsc2)nc2c(C(=O)NCc3ccc(N4CCCC4=O)nc3)cccn12 [Compound 324] | 6 to 100 nM
37 | CC(C)C[C@@H](CO)NC(=O)c1c(-c2ccsc2)nc2c(C(=O)NCc3ccc(C(=O)O)cc3)cccn12 [Compound 326] | 6 to 100 nM

Row | SMILES | IC50
38 | CC(C)C[C@@H](CO)NC(=O)c1c(-c2cccnc2)nc2c(C(=O)NCc3ccc4nc(N)sc4c3)cccn12 [Compound 405] | 6 to 100 nM
39 | CCc1nc2c(C(=O)NCc3cnn(-c4ccc(C)cc4)c3)cccn2c1C(=O)O [Compound 445] | 6 to 100 nM
40 | CC(C)C[C@@H](CO)NC(=O)c1c(-c2ccc(Cl)cc2)nc2c(C(=O)NCc3ccc4nc(N)sc4c3)cccn12 [Compound 453] | 6 to 100 nM
41 | CCc1nc2c(C(=O)NCc3ccc(S(C)(=O)=O)cc3)cccn2c1C(=O)N[C@H](CO)CC(C)C [Compound 457] | 6 to 100 nM
42 | CCc1nc2c(C(=O)NCc3ccc4[nH]ncc4c3)cccn2c1C(=O)N[C@H](CO)CC(C)C [Compound 471] | 6 to 100 nM
43 | CCc1nc2c(C(=O)NCc3cnn(-c4ccc(S(C)(=O)=O)cc4)c3)cccn2c1C(=O)N[C@H](CO)CC(C)C [Compound 472] | 6 to 100 nM
44 | CC(C)C[C@@H](CO)NC(=O)c1c(-c2ccccn2)nc2c(C(=O)NCc3ccn(-c4ccccc4)n3)cccn12 [Compound 477] | 6 to 100 nM
45 | Cc1nc2ccc(CNC(=O)c3cccn4c(C(=O)NC(C)C)c(-c5ccccn5)nc34)cc2[nH]1 [Compound 480] | 6 to 100 nM
46 | CC(C)C[C@@H](CO)NC(=O)c1c(-c2ccccn2)nc2c(C(=O)NCc3cnc4nc(N)sc4c3)cccn12 [Compound 481] | 6 to 100 nM
47 | CC(C)C[C@@H](CO)NC(=O)c1c(-c2ccccn2)nc2c(C(=O)NCc3cnn(-c4cccc(C(F)(F)F)c4)c3)cccn12 [Compound 484] | 6 to 100 nM
48 | CC(C)C[C@@H](CO)NC(=O)c1c(-c2ccccn2)nc2c(C(=O)NCc3ccc(N4CCCC4=O)cc3)cccn12 [Compound 485] | 6 to 100 nM and 6 to 20 nM
49 | CC(C)C[C@@H](CO)NC(=O)c1c(-c2ccccn2)nc2c(C(=O)NCc3ccc4occc4c3)cccn12 [Compound 489] | 6 to 100 nM
50 | Cc1cccc(-n2cc(CNC(=O)c3cccn4c(C(=O)N[C@H](CO)CC(C)C)c(-c5ccccn5)nc34)cn2)c1 [Compound 490] | 6 to 100 nM
51 | CC(C)C[C@@H](CO)NC(=O)c1c(-c2ccccn2)nc2c(C(=O)NCc3cnn(-c4ccc(S(C)(=O)=O)cc4)c3)cccn12 [Compound 491] | 6 to 100 nM and 6 to 20 nM
52 | CC(C)C[C@@H](CO)NC(=O)c1c(-c2ccccn2)nc2c(C(=O)NCc3ccc4[nH]ncc4c3)cccn12 [Compound 502] | 6 to 100 nM and 6 to 20 nM and 6 to 10 nM
53 | CC(C)C[C@@H](CO)NC(=O)c1cnc2c(C(=O)NCc3ccc4nc(N)sc4c3)cccn12 [Compound 543] | 6 to 100 nM
54 | CC(C)C[C@@H](CO)NC(=O)c1c(-c2ccccc2F)nc2c(C(=O)NCc3ccc4nc(N)sc4c3)cccn12 [Compound 545] | 6 to 100 nM
55 | COC[C@H](CC(C)C)NC(=O)c1c(-c2ccsc2)nc2c(C(=O)NCc3ccc4nc(N)sc4c3)cccn12 [Compound 593] | 6 to 100 nM
56 | Cc1nc2c(C(=O)NCc3ccc4nc(N)sc4c3)cccn2c1C(=O)N[C@H](CO)CC(C)C [Compound 598] | 6 to 100 nM and 6 to 20 nM
57 | CC(C)C[C@@H](CO)NC(=O)c1cnc2c(C(=O)NCc3cnn(-c4ccc(S(C)(=O)=O)cc4)c3)cccn12 [Compound 629] | 6 to 20 nM and 6 to 10 nM
58 | Cc1nc2ccc(-n3cc(CNC(=O)c4cccn5c(C(=O)N[C@H](CO)CC(C)C)cnc45)cn3)cc2n1C [Compound 647] | 6 to 100 nM and 6 to 20 nM
59 | CC(C)C[C@@H](CO)NC(=O)c1cnc2c(C(=O)NCc3cnn(-c4ccc(S(=O)(=O)N(C)C)cc4)c3)cccn12 [Compound 650] | 6 to 100 nM and 6 to 20 nM
60 | CC(C)CC(CO)NC(=O)c1cnc2c(C(=O)NCc3cnn(-c4ccc(S(=O)(=O)N(C)C)c(Cl)c4)c3)cccn12 (stereo not drawn) [Compound 651] | 6 to 100 nM and 6 to 20 nM and 6 to 10 nM
61 | CC(C)C[C@@H](CO)NC(=O)c1cnc2c(C(=O)NCc3cnn(-c4ccc(S(=O)(=O)N(C)C)c(F)c4)c3)cccn12 [Compound 652] | 6 to 100 nM and 6 to 20 nM and 6 to 10 nM
62 | CC(C)C[C@@H](CO)NC(=O)c1c(-c2ccsc2)nc2c(NC(=O)Cc3ccc4c(c3)OCO4)cccn12 [Compound 664] | 6 to 100 nM

Same assay, conditions: read-out: JNK 1 IC50

Row | SMILES | IC50
63 | Cc1nc2ccc(CNC(=O)c3cccn4c(C(=O)NCC5(O)CCCCC5)c(-c5ccsc5)nc34)cc2[nH]1 [Compound 118] | 23 nM
64 | Cc1nc2ccc(-n3cc(CNC(=O)c4cccn5c(C(=O)N[C@H](CO)CC(C)C)cnc45)cn3)cc2n1C [Compound 647] | 16 nM
65 | CC(C)CC(CO)NC(=O)c1cnc2c(C(=O)NCc3cnn(-c4ccc(S(=O)(=O)N(C)C)c(Cl)c4)c3)cccn12 (stereo not drawn) [Compound 651] | 10 nM
66 | CC(C)C[C@@H](CO)NC(=O)c1cnc2c(C(=O)NCc3cnn(-c4ccc(S(=O)(=O)N(C)C)c(F)c4)c3)cccn12 [Compound 652] | 11 nM
